Laboratory results from publication PMC4146477, “Synthesis and Antimycobacterial and Photosynthesis-Inhibiting Evaluation of 2-[(E)-2-Substituted-ethenyl]-1,3-benzoxazoles” (The Scientific World Journal, 2014).
Converted amounts (≈) assume the structure as drawn. “And” between values parts separate entries of the source, which are not always exact repeats. Equal entries are not always repeated. Where two headings read alike, the source gives them in different places.

Assays:
M. avium My 330/88 = test: In vitro antimycobacterial evaluation (MIC, Sula semisynthetic medium); format: cell-based; details: Mycobacterium avium
[1] = test system: Mycobacterium tuberculosis My 331/88; test: as above; format: cell-based
[2] = Lipophilicity determination by RP-HPLC (capacity factor k / log k); format: physicochemical; details: C18, MeOH 70% / H2O 30%, isocratic
From the text: A Waters Alliance 2695 XE HPLC separation module and a Waters Photodiode Array Detector 2996 (Waters Corp., Milford, MA, USA) were used. A Symmetry C18 5 μm, 4.6 × 250 mm, Part No. WAT054275 (Waters Corp., Milford, MA, USA) chromatographic column was used. The HPLC separation process was monitored by Empower 2 Chromatography Data Software, Waters 2009 (Waters Corp., Milford, MA, USA). A mixture of MeOH p.a. (70%) and H2O-HPLC - Mili-Q Grade (30%) was used as a mobile phase. The total flow of the column was 1.0 mL/min, injection volume, 30 μL, column temperature, 45°C, and sample temperature, 10°C. The detection wavelength of 210 nm was chosen. The KI methanolic solution was used for the dead time (t D) determination. Retention times (t R) were measured in minutes. The capacity factors k were calculated using the Empower 2 Chromatography Data Software according to formula k = (t R − t D)/t D, where t R is the retention time of the solute, whereas t D denotes the dead time obtained using an unretained analyte.
Lipophilicity is a property that has a major effect on ADME/Tox properties as well as pharmacological activity, because drugs mostly cross biological membranes through passive transport, which strongly depends on their lipophilicity. Lipophilicity has been studied and applied as an important drug property for decades. This parameter was measured by means of RP-HPLC and expressed as logarithm of capacity factor k. The procedure was performed under isocratic conditions with methanol as an organic modifier in the mobile phase using an end-capped nonpolar C18 stationary RP column. The hydrophobic contributions (expressed as distributive parameters π) of individual substituents in C(2) position of 2-[(E)-2-substituted-ethenyl]-1,3-benzoxazole scaffold were predicted using ACD/Percepta ver. 2012 (Advanced Chemistry Development, Inc., Toronto, ON, Canada). The results are shown in Table 1 and the match of the experimental determined lipophilicity log k with calculated distributive parameters π is illustrated in Figure 1.

[3] = test system: photosynthetic electron transport (PET) in spinach chloroplasts; test: Inhibition of photosynthetic electron transport (PET) in spinach chloroplasts (DCPIP photoreduction); format: biochemical, Spinacia oleracea L.; details: DCPIP as electron acceptor
Experimental: Chloroplasts were prepared from spinach (Spinacia oleracea L.) according to Masarovicova and Kralova. The inhibition of photosynthetic electron transport (PET) in spinach chloroplasts was determined spectrophotometrically (Genesys 6, Thermo Scientific), using an artificial electron acceptor 2,6-dichlorophenol-indophenol (DCPIP) according to Kralova et al., and the rate of photosynthetic electron transport was monitored as a photoreduction of DCPIP. The measurements were carried out in phosphate buffer (0.02 mol/L, pH 7.2) containing sucrose (0.4 mol/L), MgCl2 (0.005 mol/L), and NaCl (0.015 mol/L). The chlorophyll content was 30 mg/L in these experiments and the samples were irradiated (~100 W/m^2 with 10 cm distance) with a halogen lamp (250 W) using a 4 cm water filter to prevent warming of the samples (suspension temperature 22°C). The studied compounds were dissolved in DMSO due to their limited water solubility. […] The inhibitory efficiency of the studied compounds was expressed by IC50 values, that is, by molar concentration of the compounds causing 50% decrease in the oxygen evolution rate relative to the untreated control.

M. kansasii My 235/80 = test: In vitro antimycobacterial evaluation (MIC, Sula semisynthetic medium); format: cell-based; details: Mycobacterium kansasii
[4] = test system: aromatic amino acids in photosynthetic proteins of spinach chloroplasts; test: Aromatic amino acids (AAA) fluorescence in spinach chloroplasts; format: biochemical, Spinacia oleracea L.; details: increasing concentration (0, 3.2, 6.4, 9.6 μmol/L), excitation 275 nm
Experimental: The fluorescence emission spectra of aromatic amino acids (AAA) in spinach chloroplasts were recorded on fluorescence spectrophotometer F-2000 (Hitachi, Tokyo, Japan) using excitation wavelength λ ex = 275 nm, excitation slit 20 nm, and emission slit 10 nm. The phosphate buffer used for dilution of the chloroplast suspension was the same as described above. Due to low aqueous solubility the compounds were added to the chloroplast suspension in DMSO solution. The DMSO concentration in all samples was the same as in the control (10%). The chlorophyll concentration in the chloroplast suspension was 10 mg/L. The interaction of studied compounds with aromatic amino acids (AAA) occurring in photosynthetic proteins of spinach chloroplasts situated in PS II was monitored by the quenching of AAA fluorescence at 334 nm.

[5] = MY330/88, 336 h, 14d incubation
[6] = MY330/88, 504 h, 21d incubation
[7] = MY331/88, 336 h, 14d incubation
[8] = MY331/88, 504 h, 21d incubation
[9] = MY235/80, 336 h, 14d incubation, read-out: MIC MK
[10] = MY235/80, 504 h, 21d incubation, read-out: MIC MK
[11] = MY235/80, incubation time not stated, read-out: inhibitory activity (MIC) against M. kansasii

SMILES | MIC (M. avium My 330/88; [5]) | MIC (M. avium My 330/88; [6]) | MIC [1, 7] | MIC [1, 8] | log k [2] | IC50 [3] | MIC (M. kansasii My 235/80; [9]) | MIC (M. kansasii My 235/80; [10]) | AAA fluorescence at 334 nm [4] | MIC (M. kansasii My 235/80; [11])
C(=C\c1nc2ccccc2o1)/c1ccccc1 [Compound 1, 2-[(E)-2-Phenylethenyl]-1,3-benzoxazole] | 62.5 µM (≈ 13.8 µg/mL) | 125 µM (≈ 27.7 µg/mL) | 125 µM (≈ 27.7 µg/mL) | 125 µM (≈ 27.7 µg/mL) | 0.9409 | 149 µM | 125 µM (≈ 27.7 µg/mL) | 125 µM (≈ 27.7 µg/mL) | – | –
COc1ccccc1/C=C/c1nc2ccccc2o1 [Compound 2, 2-[(E)-2-(2-Methoxyphenyl)ethenyl]-1,3-benzoxazole] | 62.5 µM (≈ 15.7 µg/mL) | 125 µM (≈ 31.4 µg/mL) | 125 µM (≈ 31.4 µg/mL) | 125 µM (≈ 31.4 µg/mL) | 0.9325 | 76.3 µM | 125 µM (≈ 31.4 µg/mL) | 125 µM (≈ 31.4 µg/mL) | – | –
COc1ccc(/C=C/c2nc3ccccc3o2)cc1 [Compound 3, 2-[(E)-2-(4-Methoxyphenyl)ethenyl]-1,3-benzoxazole] | 32 µM (≈ 8.04 µg/mL) | 62.5 µM (≈ 15.7 µg/mL) | 62.5 µM (≈ 15.7 µg/mL) | 62.5 µM (≈ 15.7 µg/mL) | 0.9382 | 216 µM | 62.5 µM (≈ 15.7 µg/mL) | 125 µM (≈ 31.4 µg/mL) | strong decline | –
CSc1ccc(/C=C/c2nc3ccccc3o2)cc1 [Compound 4, 2-{(E)-2-[4-(Methylsulfanyl)phenyl]ethenyl}-1,3-benzoxazole] | 62.5 µM (≈ 16.7 µg/mL) | 62.5 µM (≈ 16.7 µg/mL) | 62.5 µM (≈ 16.7 µg/mL) | 125 µM (≈ 33.4 µg/mL) | 1.1225 | 199 µM | 62.5 µM (≈ 16.7 µg/mL) | 62.5 µM (≈ 16.7 µg/mL) | – | 62.5 µM (≈ 16.7 µg/mL)
Cc1ccc(/C=C/c2nc3ccccc3o2)cc1 [Compound 5, 2-[(E)-2-(4-Methylphenyl)ethenyl]-1,3-benzoxazole] | 125 µM (≈ 29.4 µg/mL) | 250 µM (≈ 58.8 µg/mL) | 250 µM (≈ 58.8 µg/mL) | 250 µM (≈ 58.8 µg/mL) | 1.1226 | 102 µM | 250 µM (≈ 58.8 µg/mL) | 500 µM (≈ 118 µg/mL) | – | –
Clc1ccc(/C=C/c2nc3ccccc3o2)cc1 [Compound 6, 2-[(E)-2-(4-Chlorophenyl)ethenyl]-1,3-benzoxazole] | 250 µM (≈ 63.9 µg/mL) | 500 µM (≈ 128 µg/mL) | 250 µM (≈ 63.9 µg/mL) | 250 µM (≈ 63.9 µg/mL) | 1.1226 and 1.1271 | 517 µM | 500 µM (≈ 128 µg/mL) | 500 µM (≈ 128 µg/mL) | – | 500 µM (≈ 128 µg/mL)
FC(F)(F)c1ccc(/C=C/c2nc3ccccc3o2)cc1 [Compound 7, 2-{(E)-2-[4-(Trifluoromethyl)phenyl]ethenyl}-1,3-benzoxazole] | 125 µM (≈ 36.2 µg/mL) | 250 µM (≈ 72.3 µg/mL) | 125 µM (≈ 36.2 µg/mL) | 250 µM (≈ 72.3 µg/mL) | 1.1317 | – | 250 µM (≈ 72.3 µg/mL) | 500 µM (≈ 145 µg/mL) | – | –
C(=C\c1nc2ccccc2o1)/c1ccc2c(c1)CCO2 [Compound 8, 2-[(E)-2-(2,3-Dihydro-1-benzofuran-5-yl)ethenyl]-1,3-benzoxazole] | 32 µM (≈ 8.43 µg/mL) | 32 µM (≈ 8.43 µg/mL) | 62.5 µM (≈ 16.5 µg/mL) | 62.5 µM (≈ 16.5 µg/mL) | 0.9397 | 131 µM | 62.5 µM (≈ 16.5 µg/mL) | 250 µM (≈ 65.8 µg/mL) | – | –
C(=C\c1nc2ccccc2o1)/c1ccco1 [Compound 9, 2-[(E)-2-(Furan-2-yl)ethenyl]-1,3-benzoxazole] | 62.5 µM (≈ 13.2 µg/mL) | 125 µM (≈ 26.4 µg/mL) | 62.5 µM (≈ 13.2 µg/mL) | 125 µM (≈ 26.4 µg/mL) | – | 224 µM | 125 µM (≈ 26.4 µg/mL) | 125 µM (≈ 26.4 µg/mL) | – | –
CCc1ccc(/C=C/c2nc3ccccc3o2)o1 [Compound 10, 2-[(E)-2-(5-Ethylfuran-2-yl)ethenyl]-1,3-benzoxazole] | 250 µM (≈ 59.8 µg/mL) | 250 µM (≈ 59.8 µg/mL) | 250 µM (≈ 59.8 µg/mL) | 250 µM (≈ 59.8 µg/mL) | 1.0702 | 122 µM | 62.5 µM (≈ 15 µg/mL) | 250 µM (≈ 59.8 µg/mL) | – | –
C(/C=C/c1nc2ccccc2o1)=C\c1ccccc1 [Compound 11, 2-[(1E,3E)-4-Phenylbuta-1,3-dien-1-yl]-1,3-benzoxazole] | 250 µM (≈ 61.8 µg/mL) | 500 µM (≈ 124 µg/mL) | 125 µM (≈ 30.9 µg/mL) | 250 µM (≈ 61.8 µg/mL) | – | 778 µM | 500 µM (≈ 124 µg/mL) | 500 µM (≈ 124 µg/mL) | – | 500 µM (≈ 124 µg/mL)
COc1ccc(/C=C/C=C/c2nc3ccccc3o2)cc1 [Compound 12, 2-[(1E,3E)-4-(4-Methoxyphenyl)buta-1,3-dien-1-yl]-1,3-benzoxazole] | 125 µM (≈ 34.7 µg/mL) | 125 µM (≈ 34.7 µg/mL) | 125 µM (≈ 34.7 µg/mL) | 250 µM (≈ 69.3 µg/mL) | 1.1394 | 351 µM | 125 µM (≈ 34.7 µg/mL) | 250 µM (≈ 69.3 µg/mL) | – | –
CN(C)C(=O)Nc1ccc(Cl)c(Cl)c1 [DCMU, 3-(3,4-dichlorophenyl)-1,1-dimethylurea, reference compound] | – | – | – | – | – | ~1.9 µM and 1.9 µM | – | – | – | –
NNC(=O)c1ccncc1 [INH, isoniazid, reference compound] | > 250 µM | > 250 µM | 0.5 µM (≈ 0.0686 µg/mL) | 0.5 µM (≈ 0.0686 µg/mL) | – | – | > 250 µM | > 250 µM | – | –
